Earlier results in patent US7329495B2 (Board of Regents, the University of Texas System, priority 2004, dated 2008).

Biological target: KIT protein (c-KIT K642E) (Homo sapiens, UniProt P10721, K642E)
Settings: human GIST cell line, homozygous exon 13 c-KIT K642E

Chain of KIT protein (c-KIT K642E) (P10721 26-976 K642E): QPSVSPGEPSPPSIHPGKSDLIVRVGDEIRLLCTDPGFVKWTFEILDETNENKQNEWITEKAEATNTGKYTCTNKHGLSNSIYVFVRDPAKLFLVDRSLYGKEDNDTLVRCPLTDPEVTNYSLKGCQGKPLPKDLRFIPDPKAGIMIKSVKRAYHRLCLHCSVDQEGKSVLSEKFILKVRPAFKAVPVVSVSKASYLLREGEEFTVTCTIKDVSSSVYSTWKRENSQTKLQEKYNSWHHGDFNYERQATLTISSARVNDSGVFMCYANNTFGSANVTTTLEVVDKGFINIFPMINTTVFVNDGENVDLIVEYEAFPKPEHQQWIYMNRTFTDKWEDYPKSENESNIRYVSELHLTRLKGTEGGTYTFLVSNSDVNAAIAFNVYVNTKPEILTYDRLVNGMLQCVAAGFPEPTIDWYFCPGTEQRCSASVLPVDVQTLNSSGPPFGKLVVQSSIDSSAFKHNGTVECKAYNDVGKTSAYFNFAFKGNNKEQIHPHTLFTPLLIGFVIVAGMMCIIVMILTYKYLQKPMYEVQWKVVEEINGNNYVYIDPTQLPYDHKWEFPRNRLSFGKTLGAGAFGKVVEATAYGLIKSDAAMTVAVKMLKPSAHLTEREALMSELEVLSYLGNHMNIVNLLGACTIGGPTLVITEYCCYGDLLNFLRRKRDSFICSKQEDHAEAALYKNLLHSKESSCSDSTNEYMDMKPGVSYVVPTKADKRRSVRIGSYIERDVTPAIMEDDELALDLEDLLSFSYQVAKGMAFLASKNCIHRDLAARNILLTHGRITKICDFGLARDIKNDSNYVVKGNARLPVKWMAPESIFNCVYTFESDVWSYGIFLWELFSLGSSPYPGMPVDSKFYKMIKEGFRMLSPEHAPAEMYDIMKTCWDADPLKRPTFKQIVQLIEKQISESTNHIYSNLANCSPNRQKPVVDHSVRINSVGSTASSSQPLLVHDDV

- constitutive KIT tyrosine phosphorylation after introducing STI571 to the cells: abolished
SMILES: Cc1ccc(NC(=O)c2ccc(CN3CCN(C)CC3)cc2)cc1Nc1nccc(-c2cccnc2)n1 [imatinib]
